pKi: −log10 of the molar value. Some results are limits rather than exact numbers.

The assay concerns the target T1, progesterone receptor (Homo sapiens, UniProt P06401).
T1 sequence (P06401 679-933 limits assumed): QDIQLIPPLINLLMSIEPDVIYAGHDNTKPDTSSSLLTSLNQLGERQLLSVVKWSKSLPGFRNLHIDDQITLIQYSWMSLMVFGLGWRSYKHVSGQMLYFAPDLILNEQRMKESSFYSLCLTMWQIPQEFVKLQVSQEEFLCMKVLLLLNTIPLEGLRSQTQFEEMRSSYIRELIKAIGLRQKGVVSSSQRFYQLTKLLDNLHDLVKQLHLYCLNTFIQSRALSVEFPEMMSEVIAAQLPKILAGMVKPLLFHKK
The experiment in a line: PR Human Progesterone NHR Binding (Agonist Radioligand) Assay, [3H]progesterone, T47D cytosolic fractions. Particulars: 0.5 nM [3H]progesterone, 1 hour at 4° C. As to the method:
Exemplary compounds were tested for ability to bind to the progesterone receptor.
Compounds were tested using the PR Human Progesterone NHR Binding (Agonist Radioligand) Assay, Cerep at Eurofins Discovery using a modified version of the protocol from Sarup et al. (Cancer Res 1988; 48:5071-5078). Briefly, cytosolic fractions of T47D cells were incubated with 0.5 nM [^3H]progesterone for 1 hour at 4° C. in the absence or presence of the test compound. Nonspecific binding was determined in the presence of […] promegestone. Reactions were subjected to scintillation counting. Results are expressed as a percent inhibition of the control radioligand specific binding.
For `CCS(=O)(=O)c1ccc(Oc2cccc(OCCOC3CCN(c4ccc(C(=O)N[C@H]5C(C)(C)[C@H](Oc6ccc(C#N)c(Cl)c6)C5(C)C)cn4)CC3)c2F)c(-c2cn(C)c(=O)c3[nH]ccc23)c1` [Compound I-185], the pKi (usually the negative decadic logarithm of the Ki, by convention in mol/L) is greater than 7.30.
The result for `Cn1cc(-c2cc(C(C)(C)O)ccc2Oc2ccc(N3CC(CC4CCN(c5ncc(C(=O)N[C@H]6C(C)(C)[C@H](Oc7ccc(C#N)c(Cl)c7)C6(C)C)cn5)CC4)C3)cc2)c2cc[nH]c2c1=O` [Compound I-232] reads greater than 7.30; that for `CCS(=O)(=O)Nc1ccc(Oc2cccc(CCOC3CCN(c4ncc(C(=O)N[C@H]5C(C)(C)[C@H](Oc6ccc(C#N)c(Cl)c6)C5(C)C)cn4)CC3)c2)c(-c2cn(C)c(=O)c3[nH]ccc23)c1` [Compound I-19], greater than 7.30.

Source of the values: patent publication US20250388605A1, “HETEROBIFUNCTIONAL COMPOUNDS AND METHODS OF TREATING DISEASE” (Halda Therapeutics OpCo, Inc., priority 2022, published 2025).
